Test results reported in patent publication US20250368616A1, “NITROGEN-CONTAINING HETEROCYCLIC DERIVATIVE INHIBITOR, AND PREPARATION METHOD THEREFOR AND USE THEREOF” (SHANGHAI HANSOH BIOMEDICAL CO., LTD., priority 2021, published 2025).

Tests used:
[1] = biological target: EGFR del19/T790M/C797S mutant kinase (Homo sapiens, UniProt P00533, C797S/DEL746-750/T790M); test: HTRF kinase assay, EGFR del19/T790M/C797S mutant kinase; type: biochemical; conditions: 120 minutes at room temperature
Source text: (§1) Test Example 1. Determination of the Inhibitory Effect of the Compounds of the Present Invention on the Activity of EGFR del19/T790M/C797S and EGFR L858R/T790M/C797S Mutant Kinases
(§2) Experimental objective: The objective of this test example is to test the inhibitory activity of the compounds on the activity of EGFR del19/T790M/C797S and EGFR L858R/T790M/C797S mutant kinases.
(§3) Experimental method: This experiment used Cisbio's HTRF kinase assay method (Cisbio #62TK0PEB), wherein a catalytic reaction occurred between the substrate polypeptide TK and ATP in the presence of the tyrosine kinase with EGFR del19/T790M/C797S or EGFR L858R/T790M/C797S mutation, the substance was phosphorylated, and the activity of the kinase was characterized by measuring the content of the phosphorylated substrate generated during the reaction, and the half inhibitory concentration IC50 of the compound on the activity of EGFR del19/T790M/C797S or EGFR L858R/T790M/C797S mutant kinase was obtained.
(§4) Specific Experimental Operations were as Follows: • the kinase reaction was carried out in a white 384-well plate (Perkin Elmer #6008280), and 1-5 μL of compounds of different concentrations which were diluted with 1% DMSO-containing ddH2O were added; to the positive control wells were added 1-5 μL of 1% DMSO-containing ddH2O, followed by 1-5 μL of 0.5-5 nM 4×EGFR del19/T790M/C797S or EGFR L858R/T790M/C797S mutant kinase solution which was diluted with Dilution buffer (5× kinase buffer, MgCl2 6.65 Mm, MnCl2 1.33 mM, DTT 1.33 mM); to the negative control wells were added 1-5 μL of Dilution buffer; to all the wells were added 1-5 μL of 4 μM 4× substrate TK solution which was prepared with 10× Dilution buffer, and finally added 1-5 μL of 24 μM 4×ATP solution which was diluted with Dilution buffer to start the reaction; after reacting at room temperature for 120 minutes, 10 μL of detection solution (TK antibody 16 nM, XL665 0.5 μM) was added to each well, same was reacted at room temperature in the dark for 20 minutes, and then the […] was detected using a BioTek Synergy H1 microplate reader.
(§5) The percent inhibition data for compound-treated wells was calculated according to the positive control wells (DMSO control wells) and negative control wells (no kinase added) on the plate {% inhibition rate=100−[(test compound value−negative control value)]/(positive control value−negative control value)×100}. GraphPad prism was used to fit different concentrations and corresponding percent inhibition rate data to a 4-parameter nonlinear logistic equation to calculate IC50 values.

[2] = biological target: EGFR L858R/T790M/C797S mutant kinase (Homo sapiens (Human), UniProt P00533, C797S/L858R/T790M); test: HTRF kinase assay, EGFR L858R/T790M/C797S mutant kinase; type: biochemical; conditions: 120 minutes at room temperature
Source text: as §1, §2, §3, §4, §5

[3] = system: Ba/F3 EGFR Del19/T790M/C797S cells; test: Cell proliferation inhibition assay (Cell Titer-Glo), Ba/F3 EGFR Del19/T790M/C797S; type: cell-based; conditions: 72 hours, read-out: Ba/F3 EGFR Del19_T790M_C797S IC50
Source text: Test Example 2: Cell Proliferation Inhibition Assay
Experimental objective: The objective of this test example is to test the inhibitory activity of compounds on the proliferation of different EGFR C797S drug-resistant mutant cell lines Ba/F3 EGFR Del19/T790M/C797S, Ba/F3 EGFR L858R/T790M/C797S, and Ba/F3 EGFR Del19/C797S.
• Ba/F3 EGFR Del19/T790M/C797S cells were purchased from KYinno Biotechnology Co., Ltd.; • Ba/F3 EGFR Del19/C797S cells were purchased from CoBioer Biosciences Co., Ltd.; • Ba/F3 EGFR L858R/T790M/C797S cells were purchased from CoBioer Biosciences Co., Ltd.; • Cell Titer-Glo was purchased from Promega, with a catalog number of G7573; • RPMI 1640 was purchased from Gibco, with a catalog number of 22400089; • FBS was purchased from Gibco, with a catalog number of 10091148; • cell culture plates were purchased from Corning, with a catalog number of 3610.
The inhibitory activity of the compound on the proliferation of different EGFR C797S drug-resistant mutant cell lines was detected using the Cell Titer-Glo method. The different cell lines were cultured in RPMI 1640 complete culture medium containing 10% FBS under conditions of 37° C. and 5% CO2, the cells were collected by centrifugation when growing to a certain density, and adjusted to appropriate cell density after counting, the cells were spread on a white 96-well plate at 90 μL/well, and cultured in a 37° C., 5% CO2 incubator overnight, prepared compound solutions of different concentrations were added at 10 μL/well, corresponding solvent controls were set, and all wells were cultured in a 37° C., 5% CO2 incubator for 72 hours, 50 μL of CellTiter-Glo solution was added to each well, shook and mixed evenly, and incubated in the dark for 10 minutes, and a BioTek Synergy H1 microplate reader was used for reading.
The luminescence signal value was used to calculate the inhibition rate. Graphpad Prism software was used to fit the concentration and inhibition rate to a nonlinear regression curve, so as to obtain the IC50 value, as shown in Tables 3 and 4 below for details.

[4] = system: Ba/F3 EGFR Del19/C797S cells; test: Cell proliferation inhibition assay (Cell Titer-Glo), Ba/F3 EGFR Del19/C797S; type: cell-based; conditions: 72 hours, read-out: Ba/F3 EGFR Del19_C797S IC50
How it was run: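 Ba/F3 cells carrying EGFR Del19/T790M/C797S or Del19/C797S, grown in RPMI 1640 with 10% FBS, were plated overnight and then exposed to serially diluted compound for 72 h at 37° C, 5% CO2. Viability was read by CellTiter-Glo luminescence; IC50 came from a nonlinear fit of inhibition rate against concentration.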

Sequence of EGFR del19/T790M/C797S mutant kinase (P00533 with tags, fused parts or gaps C797S/DEL746-750/T790M limits assumed): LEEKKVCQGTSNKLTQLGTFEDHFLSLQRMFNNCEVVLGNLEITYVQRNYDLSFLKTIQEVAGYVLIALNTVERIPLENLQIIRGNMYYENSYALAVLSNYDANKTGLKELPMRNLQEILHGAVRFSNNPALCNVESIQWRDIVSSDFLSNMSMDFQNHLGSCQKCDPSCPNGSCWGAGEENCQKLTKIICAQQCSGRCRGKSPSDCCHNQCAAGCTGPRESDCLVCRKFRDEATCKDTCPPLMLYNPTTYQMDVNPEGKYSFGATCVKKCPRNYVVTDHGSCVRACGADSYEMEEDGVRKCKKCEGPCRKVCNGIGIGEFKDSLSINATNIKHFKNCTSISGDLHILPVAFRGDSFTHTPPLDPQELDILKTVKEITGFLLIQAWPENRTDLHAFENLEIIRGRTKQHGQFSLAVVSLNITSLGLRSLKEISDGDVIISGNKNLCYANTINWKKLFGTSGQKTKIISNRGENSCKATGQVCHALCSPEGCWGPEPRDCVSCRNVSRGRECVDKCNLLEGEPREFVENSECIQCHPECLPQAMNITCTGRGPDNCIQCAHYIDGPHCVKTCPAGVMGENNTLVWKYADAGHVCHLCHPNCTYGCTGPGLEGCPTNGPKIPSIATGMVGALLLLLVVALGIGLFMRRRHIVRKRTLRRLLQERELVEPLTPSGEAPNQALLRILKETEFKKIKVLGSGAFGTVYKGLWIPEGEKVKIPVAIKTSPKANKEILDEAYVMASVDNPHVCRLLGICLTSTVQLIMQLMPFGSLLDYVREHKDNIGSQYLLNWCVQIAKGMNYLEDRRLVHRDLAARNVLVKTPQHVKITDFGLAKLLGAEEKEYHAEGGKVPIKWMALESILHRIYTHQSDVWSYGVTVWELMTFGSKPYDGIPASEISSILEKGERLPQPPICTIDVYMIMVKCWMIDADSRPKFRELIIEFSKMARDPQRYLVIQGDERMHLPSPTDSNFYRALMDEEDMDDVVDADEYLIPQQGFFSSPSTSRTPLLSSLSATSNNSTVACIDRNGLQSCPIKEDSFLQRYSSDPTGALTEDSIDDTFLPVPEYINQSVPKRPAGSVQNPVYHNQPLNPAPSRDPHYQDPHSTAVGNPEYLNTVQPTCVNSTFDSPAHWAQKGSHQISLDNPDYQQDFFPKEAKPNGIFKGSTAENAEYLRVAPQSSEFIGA
Sequence of EGFR L858R/T790M/C797S mutant kinase (P00533 25-1210 T790M/C797S/L858R): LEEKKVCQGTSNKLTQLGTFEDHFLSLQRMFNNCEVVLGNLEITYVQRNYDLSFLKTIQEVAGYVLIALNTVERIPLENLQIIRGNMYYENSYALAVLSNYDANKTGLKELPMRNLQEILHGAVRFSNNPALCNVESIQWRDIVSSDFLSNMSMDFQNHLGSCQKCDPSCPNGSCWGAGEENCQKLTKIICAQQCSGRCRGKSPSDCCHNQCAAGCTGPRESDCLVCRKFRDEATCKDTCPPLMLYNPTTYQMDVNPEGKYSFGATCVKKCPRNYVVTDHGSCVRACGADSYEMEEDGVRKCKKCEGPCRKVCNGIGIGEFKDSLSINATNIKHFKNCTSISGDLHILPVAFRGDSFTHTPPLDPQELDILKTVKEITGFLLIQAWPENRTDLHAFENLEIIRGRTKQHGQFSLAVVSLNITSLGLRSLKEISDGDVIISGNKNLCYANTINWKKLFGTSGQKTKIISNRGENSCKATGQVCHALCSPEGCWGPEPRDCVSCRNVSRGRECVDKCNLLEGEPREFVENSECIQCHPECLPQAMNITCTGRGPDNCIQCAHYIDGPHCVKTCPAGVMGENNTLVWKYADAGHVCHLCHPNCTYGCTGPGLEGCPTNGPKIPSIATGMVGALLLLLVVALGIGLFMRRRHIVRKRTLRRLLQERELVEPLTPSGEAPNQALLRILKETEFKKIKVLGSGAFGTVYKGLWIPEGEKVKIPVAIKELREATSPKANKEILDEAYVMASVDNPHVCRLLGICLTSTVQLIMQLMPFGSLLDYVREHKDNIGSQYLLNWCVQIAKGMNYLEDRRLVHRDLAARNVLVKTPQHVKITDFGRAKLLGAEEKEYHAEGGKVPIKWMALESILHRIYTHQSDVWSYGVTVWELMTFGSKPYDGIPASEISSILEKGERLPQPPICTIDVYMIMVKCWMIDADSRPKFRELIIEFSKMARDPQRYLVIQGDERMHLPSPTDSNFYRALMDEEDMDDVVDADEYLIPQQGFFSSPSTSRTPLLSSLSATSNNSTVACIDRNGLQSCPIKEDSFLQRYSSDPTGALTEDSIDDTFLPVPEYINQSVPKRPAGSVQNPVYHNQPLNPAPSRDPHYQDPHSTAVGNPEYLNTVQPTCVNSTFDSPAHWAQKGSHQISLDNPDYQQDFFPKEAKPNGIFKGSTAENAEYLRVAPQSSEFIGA

IC50 [1] [nM]	IC50 [2] [nM]	IC50 [3] [nM]	IC50 [4] [nM]	Compound
0.58	0.51	10	14	CC(C)c1ccc(N2CC(CS(C)(=O)=O)C2)c2cnc(Nc3ccnc(-c4cnn(S(=O)(=O)C5CC5)c4)n3)cc12 [Example 1, N-(2-(1-(cyclopropylsulfonyl)-1H-pyrazol-4-yl)pyrimidin-4-yl)-5-isopropyl-8-(3-((methanesulfonyl)methyl)azetidin-1-yl)isoquinolin-3-amine]
3.9	0.6	–	96	CC(C)c1ccc(N2C[C@H](CS(C)(=O)=O)[C@H]2C)c2cnc(Nc3ccnc(-c4cnn(CC5CCO5)c4)n3)cc12 (stereo partly drawn) [Example 21, 5-isopropyl-8-((2R,3S)-2-methyl-3-((methanesulfonyl)methyl)azetidin-1-yl)-N-(2-(1-(oxetan-2-ylmethyl)-1H-pyrazol-4-yl)pyrimidin-4-yl)isoquinolin-3-amine]
3.6	0.3	10	29	CC(C)c1ccc(N2C[C@H](CS(C)(=O)=O)[C@H]2C)c2cnc(Nc3ccnc(-c4cnn(C)c4)n3)cc12 [Example 24, 5-isopropyl-N-(2-(1-methyl-1H-pyrazol-4-yl)pyrimidin-4-yl)-8-((2R,3S)-2-methyl-3-((methanesulfonyl)methyl)azetidin-1-yl)isoquinolin-3-amine]
8.9	1.9	–	40	CC(C)c1ccc(N2C[C@H](CS(C)(=O)=O)[C@H]2C)c2cnc(Nc3ccnc(-c4cnn(CCF)c4)n3)cc12 [Example 27, N-(2-(1-(2-fluoroethyl)-1H-pyrazol-4-yl)pyrimidin-4-yl)-5-isopropyl-8-((2R,3S)-2-methyl-3-((methanesulfonyl)methyl)azetidin-1-yl)isoquinolin-3-amine]
